Where a name gives a salt, the structure may show the parent alone.
How the values were obtained:
JAK2 tyrosine kinase = target: T1, JAK2 tyrosine kinase (Homo sapiens, UniProt O60674); test: JAK2 tyrosine kinase inhibitory activity test (ELISA); format: biochemical, humans; details: 25 μM ATP substrate solution, 30° C., one hour
T1 construct: purchased Carna Biosciences, Inc
Description: (§1) 1. Preparation of Test Substance:
(§2) A test substance was dissolved in dimethyl sulfoxide (DMSO) to 10 mM and further diluted with DMSO to concentrations of 100-fold of the concentrations to be measured (100, 10, 1, 0.1, and 0.01 μM). Furthermore, the resultant was diluted with an assay buffer to 20-fold, thereby preparing a solution as a test substance solution. A solution prepared by diluting DMSO with an assay buffer to 20-fold was used as a negative control. A buffer containing 15 mM Tris-Cl (pH 7.5), 0.01 (v/v) % Tween-20, and 1 mM dithiothreitol was used as the assay buffer.
(§3) 2. Measurement of ROS Tyrosine Kinase Activity and JAK2 Tyrosine Kinase Activity:
(§4) The activity was measured by adopting the ELISA method. […] Finally, an ROS kinase or a JAK2 kinase (derived from humans, Carna Biosciences, Inc.) (diluted with the assay buffer to 0.25 nM) was added to the plate at 20 μL per well, and the resulting mixture was stirred. A reaction was performed at 30° C. for one hour. After the plate was washed 4 times with a washing buffer (50 mM Tris-Cl (pH 7.5), 150 mM NaCl, and 0.02 (v/v) % Tween-20), a blocking buffer (0.1% bovine serum albumin, 50 mM Tris-Cl (pH 7.5), 150 mM NaCl, and 0.02 (v/v) % Tween-20) was added to the plate at 150 μL per well, and incubated at 30° C. for 30 minutes. The blocking buffer was then removed, and a horse radish peroxidase-labeled anti-phosphorylated tyrosine antibody (BD Biosciences, Inc.) (diluted with the blocking buffer to 10,000-fold) was added to the plate at 100 μL per well, and the plate was incubated at 30° C. for 30 minutes. After the plate was washed 4 times with the washing buffer, a 3,3′,5,5′-tetramethylbenzidine solution (Sigma-Aldrich Co., Ltd.) was added to the plate at 100 μL per well to develop the color for 10 minutes. The reaction was stopped by adding 0.1 M sulfuric acid at 100 μL per well. An absorbance at 450 nm was measured with a microplate reader (Model 3550, manufactured by BIO-RAD, Benchmark, manufactured by BIO-RAD, or iMARK, manufactured by BIO-RAD).
(§5) 3. Analysis of Measurement Results:
(§6) A non-linear regression analysis was performed for the measured absorbance with an SAS system (SAS Institute Inc.), and a concentration of each of the test substances of inhibiting the ROS tyrosine kinase activity or JAK2 tyrosine kinase activity at 50% (IC50) was calculated. The inhibitory activity (IC50, nM) of each of the test substances against the ROS tyrosine kinase or JAK2 tyrosine kinase is shown in Tables 6 to 8.

ROS tyrosine kinase = target: T2, ROS tyrosine kinase (Homo sapiens, UniProt P08922); test: ROS tyrosine kinase inhibitory activity test (ELISA); format: biochemical, humans; details: 25 μM ATP substrate solution, 30° C., one hour
T2 construct: purchased Carna Biosciences, Inc
T2 sequence (P08922 28-2347): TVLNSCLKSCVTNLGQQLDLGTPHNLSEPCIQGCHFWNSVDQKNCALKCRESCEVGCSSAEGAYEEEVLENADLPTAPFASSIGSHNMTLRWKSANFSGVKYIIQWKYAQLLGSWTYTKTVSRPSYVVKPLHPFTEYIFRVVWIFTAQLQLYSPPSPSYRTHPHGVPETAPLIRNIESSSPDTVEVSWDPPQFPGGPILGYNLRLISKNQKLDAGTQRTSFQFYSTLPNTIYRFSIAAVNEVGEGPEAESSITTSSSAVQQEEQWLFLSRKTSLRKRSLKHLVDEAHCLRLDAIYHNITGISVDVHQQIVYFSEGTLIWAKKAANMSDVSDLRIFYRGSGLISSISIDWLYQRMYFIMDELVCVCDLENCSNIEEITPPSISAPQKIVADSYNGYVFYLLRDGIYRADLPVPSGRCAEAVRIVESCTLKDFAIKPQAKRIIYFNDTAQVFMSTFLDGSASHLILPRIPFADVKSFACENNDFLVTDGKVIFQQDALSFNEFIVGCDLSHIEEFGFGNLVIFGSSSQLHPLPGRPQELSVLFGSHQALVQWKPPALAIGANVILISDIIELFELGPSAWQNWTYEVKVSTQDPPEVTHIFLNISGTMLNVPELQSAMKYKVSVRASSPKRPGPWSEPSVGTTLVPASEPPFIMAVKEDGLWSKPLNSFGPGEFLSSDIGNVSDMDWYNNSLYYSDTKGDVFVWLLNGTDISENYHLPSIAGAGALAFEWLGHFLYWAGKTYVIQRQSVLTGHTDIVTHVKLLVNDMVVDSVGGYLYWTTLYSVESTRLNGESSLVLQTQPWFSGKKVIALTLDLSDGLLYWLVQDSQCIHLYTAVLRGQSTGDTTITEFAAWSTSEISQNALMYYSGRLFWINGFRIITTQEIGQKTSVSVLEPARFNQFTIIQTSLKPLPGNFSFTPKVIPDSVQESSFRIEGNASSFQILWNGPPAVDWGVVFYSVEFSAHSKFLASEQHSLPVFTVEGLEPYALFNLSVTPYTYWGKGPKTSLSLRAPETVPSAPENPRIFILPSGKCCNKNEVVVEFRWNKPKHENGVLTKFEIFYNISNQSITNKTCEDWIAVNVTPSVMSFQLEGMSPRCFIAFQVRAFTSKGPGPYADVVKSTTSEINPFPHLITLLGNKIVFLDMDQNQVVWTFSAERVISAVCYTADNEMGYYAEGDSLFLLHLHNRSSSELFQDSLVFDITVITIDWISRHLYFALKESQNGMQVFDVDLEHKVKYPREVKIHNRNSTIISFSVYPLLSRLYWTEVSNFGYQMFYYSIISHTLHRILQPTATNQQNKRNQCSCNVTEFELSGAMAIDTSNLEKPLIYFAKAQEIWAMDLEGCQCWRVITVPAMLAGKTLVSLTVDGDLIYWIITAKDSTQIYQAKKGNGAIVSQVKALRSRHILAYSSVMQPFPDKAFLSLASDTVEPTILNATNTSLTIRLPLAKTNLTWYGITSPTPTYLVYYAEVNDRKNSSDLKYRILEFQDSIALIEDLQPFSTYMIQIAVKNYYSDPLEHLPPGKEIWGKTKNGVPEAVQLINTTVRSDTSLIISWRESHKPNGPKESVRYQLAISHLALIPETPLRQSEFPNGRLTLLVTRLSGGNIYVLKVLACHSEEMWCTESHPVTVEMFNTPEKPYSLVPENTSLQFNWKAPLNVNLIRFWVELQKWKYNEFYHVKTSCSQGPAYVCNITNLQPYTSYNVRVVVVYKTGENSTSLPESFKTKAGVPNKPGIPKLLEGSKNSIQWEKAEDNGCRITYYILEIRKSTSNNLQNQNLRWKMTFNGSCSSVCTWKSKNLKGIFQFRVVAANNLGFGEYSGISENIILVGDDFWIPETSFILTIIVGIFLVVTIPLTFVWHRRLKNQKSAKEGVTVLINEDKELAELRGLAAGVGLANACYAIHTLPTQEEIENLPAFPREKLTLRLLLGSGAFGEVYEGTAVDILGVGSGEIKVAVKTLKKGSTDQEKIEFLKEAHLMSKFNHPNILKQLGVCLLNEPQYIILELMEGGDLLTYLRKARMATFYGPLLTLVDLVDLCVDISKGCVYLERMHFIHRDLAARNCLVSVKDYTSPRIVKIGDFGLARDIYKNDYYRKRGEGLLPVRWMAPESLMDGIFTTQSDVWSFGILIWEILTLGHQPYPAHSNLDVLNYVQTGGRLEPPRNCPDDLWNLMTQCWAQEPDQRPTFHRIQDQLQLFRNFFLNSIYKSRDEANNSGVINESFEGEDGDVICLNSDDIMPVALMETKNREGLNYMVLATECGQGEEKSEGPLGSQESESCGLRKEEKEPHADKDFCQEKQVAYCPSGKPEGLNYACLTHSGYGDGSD
Description: as §1, §2, §3, §4, §5, §6

T1 sequence (O60674 whole entry): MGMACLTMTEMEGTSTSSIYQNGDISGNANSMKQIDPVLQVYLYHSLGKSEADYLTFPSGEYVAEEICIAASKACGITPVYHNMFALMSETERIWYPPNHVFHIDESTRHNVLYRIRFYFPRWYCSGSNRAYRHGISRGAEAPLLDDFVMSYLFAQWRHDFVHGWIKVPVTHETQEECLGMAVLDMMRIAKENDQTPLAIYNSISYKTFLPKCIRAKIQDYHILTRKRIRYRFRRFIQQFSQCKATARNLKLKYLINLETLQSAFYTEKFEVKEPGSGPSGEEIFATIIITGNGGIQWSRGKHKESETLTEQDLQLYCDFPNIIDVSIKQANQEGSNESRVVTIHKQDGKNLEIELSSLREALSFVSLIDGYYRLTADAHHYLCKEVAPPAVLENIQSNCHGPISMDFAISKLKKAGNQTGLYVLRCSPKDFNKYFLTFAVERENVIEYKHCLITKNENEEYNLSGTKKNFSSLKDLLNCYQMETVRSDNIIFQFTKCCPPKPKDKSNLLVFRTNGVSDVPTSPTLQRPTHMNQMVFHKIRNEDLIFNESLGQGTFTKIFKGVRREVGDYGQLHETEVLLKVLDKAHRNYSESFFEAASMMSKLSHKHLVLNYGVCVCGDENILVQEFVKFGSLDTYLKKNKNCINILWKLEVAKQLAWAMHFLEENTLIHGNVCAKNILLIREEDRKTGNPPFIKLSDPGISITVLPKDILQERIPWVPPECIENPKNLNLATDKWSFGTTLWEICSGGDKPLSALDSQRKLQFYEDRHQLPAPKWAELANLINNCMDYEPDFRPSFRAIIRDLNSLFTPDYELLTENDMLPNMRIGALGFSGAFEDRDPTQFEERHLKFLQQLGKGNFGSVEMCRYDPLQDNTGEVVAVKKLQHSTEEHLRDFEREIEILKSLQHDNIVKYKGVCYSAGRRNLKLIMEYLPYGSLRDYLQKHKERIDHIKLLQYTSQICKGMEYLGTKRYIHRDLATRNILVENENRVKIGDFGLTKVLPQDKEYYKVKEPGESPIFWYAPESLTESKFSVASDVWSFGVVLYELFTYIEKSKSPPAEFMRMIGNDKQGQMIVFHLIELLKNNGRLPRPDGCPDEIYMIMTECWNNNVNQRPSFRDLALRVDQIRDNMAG

## Cc1ccc(C2CCCN2c2ncc(C)c(Nc3ncc(C#N)s3)n2)cc1 (stereo not drawn) [Example 2, 2-({5-Methyl-2-[2-(4-methylphenyl)pyrrolidin-1-yl]pyrimidin-4-yl}amino)-1,3-thiazole-5-carbonitrile]
JAK2 tyrosine kinase
  IC50: 270 nM
ROS tyrosine kinase
  IC50: 3.2 nM

## COc1c(Nc2ncc(C#N)s2)nc(N2CCCC2c2ccc(C)cc2)nc1-c1cncnc1 (stereo not drawn) [Example 3, 2-({5-Methoxy-2-[2-(4-methylphenyl)pyrrolidin-1-yl]-4,5′-bipyrimidin-6-yl}amino)-1,3-thiazole-5-carbonitrile]
JAK2 tyrosine kinase
  IC50: > 1000 nM
ROS tyrosine kinase
  IC50: 8.6 nM

## COc1c(Nc2ncc(C#N)s2)nc(N2CCCC2c2ccc(C)cc2)nc1-c1cccnc1 (stereo not drawn) [Example 5, 2-({5-Methoxy-2-[2-(4-methylphenyl)pyrrolidin-1-yl]-6-(pyridin-3-yl)pyrimidin-4-yl}amino)-1,3-thiazole-5-carbonitrile]
JAK2 tyrosine kinase
  IC50: > 1000 nM
ROS tyrosine kinase
  IC50: 8.1 nM

## Cc1ccc(C2CCCN2c2nc(Nc3ncc(C#N)s3)c(C)c(-c3cnn(C)c3)n2)cc1 (stereo not drawn) [Example 8, 2-({5-Methyl-2-[2-(4-methylphenyl)pyrrolidin-1-yl]-6-(1-methyl-1H-pyrazol-4-yl)pyrimidin-4-yl}amino)-1,3-thiazole-5-carbonitrile]
JAK2 tyrosine kinase
  IC50: > 1000 nM
ROS tyrosine kinase
  IC50: 3.9 nM

## COc1c(Nc2ncc(C#N)s2)nc(N2CCC[C@H]2c2ccc(C)cc2)nc1-c1cnn(C)c1 [Example 10, 2-({5-Methoxy-2-[(2S)-2-(4-methylphenyl)pyrrolidin-1-yl]-6-(l-methyl-1H-pyrazol-4-yl)pyrimidin-4-yl}amino)-1,3-thiazole-5-carbonitrile]
JAK2 tyrosine kinase
  IC50: 260 nM
ROS tyrosine kinase
  IC50: 1.1 nM

## COc1cc(C)ccc1C1CCCN1c1ncc(OC)c(Nc2ncc(C#N)s2)n1 (stereo not drawn) [Example 14, 2-({5-Methoxy-2-[2-(2-methoxy-4-methylphenyl)pyrrolidin-1-yl]pyrimidin-4-yl}amino)-1,3-thiazole-5-carbonitrile]
JAK2 tyrosine kinase
  IC50: 350 nM
ROS tyrosine kinase
  IC50: 2.5 nM

## Cc1ccc(C2CCCN2c2nc(Nc3ncc(C#N)s3)c(C)c(-c3ccc(O)nc3)n2)cc1 (stereo not drawn) [Example 16, 2-({6-(6-Hydroxypyridin-3-yl)-5-methyl-2-[2-(4-methylphenyl)pyrrolidin-1-yl]pyrimidin-4-yl}amino)-1,3-thiazole-5-carbonitrile]
JAK2 tyrosine kinase
  IC50: 36 nM
ROS tyrosine kinase
  IC50: 1.5 nM

## Cc1ccc(C2CCCN2c2nc(C)c(Br)c(Nc3ncc(C#N)s3)n2)cc1 (stereo not drawn) [Example 17, 2-({5-Bromo-6-methyl-2-[2-(4-methylphenyl)pyrrolidin-1-yl]pyrimidin-4-yl}amino)-1,3-thiazole-5-carbonitrile]
JAK2 tyrosine kinase
  IC50: > 1000 nM
ROS tyrosine kinase
  IC50: 39 nM

## COc1c(Nc2ncc(C#N)s2)nc(N2CCCC2c2ccc(C)cc2)nc1C1CC1 (stereo not drawn) [Example 18, 2-({6-Cyclopropyl-5-methoxy-2-[2-(4-methylphenyl)pyrrolidin-1-yl]pyrimidin-4-yl}amino)-1,3-thiazole-5-carbonitrile]
JAK2 tyrosine kinase
  IC50: > 1000 nM
ROS tyrosine kinase
  IC50: 120 nM

## Cc1ccc([C@@H]2CCCN2c2cnc(C)c(Nc3ncc(C#N)s3)n2)cc1 [Example 20, 2-({3-Methyl-6-[(2S)-2-(4-methylphenyl)pyrrolidin-1-yl]pyrazin-2-yl}amino)-1,3-thiazole-5-carbonitrile hydrochloride]
JAK2 tyrosine kinase
  IC50: 250 nM
ROS tyrosine kinase
  IC50: 1.1 nM

## N#Cc1cnc(Nc2nc(N3CCCC3c3ccc(F)cc3)cnc2-c2cnco2)s1 (stereo not drawn) [Example 21, 2-({6-[2-(4-Fluorophenyl)pyrrolidin-1-yl]-3-(1,3-oxazol-5-yl)pyrazin-2-yl}amino)-1,3-thiazole-5-carbonitrile]
JAK2 tyrosine kinase
  IC50: > 1000 nM
ROS tyrosine kinase
  IC50: 13 nM

## N#Cc1cnc(Nc2nc(N3CCCC3c3ccc(F)cc3)cnc2-c2cncnc2)s1 (stereo not drawn) [Example 22, 2-({6-[2-(4-Fluorophenyl)pyrrolidin-1-yl]-3-(pyrimidin-5-yl)pyrazin-2-yl}amino)-1,3-thiazole-5-carbonitrile]
JAK2 tyrosine kinase
  IC50: > 1000 nM
ROS tyrosine kinase
  IC50: 47 nM

## COc1cc(C)ccc1C1CCCN1c1cnc(C2CC2)c(Nc2ncc(C#N)s2)n1 (stereo not drawn) [Example 23, 2-({3-Cyclopropyl-6-[2-(2-methoxy-4-methylphenyl)pyrrolidin-1-yl]pyrazin-2-yl}amino)-1,3-thiazole-5-carbonitrile]
JAK2 tyrosine kinase
  IC50: > 1000 nM
ROS tyrosine kinase
  IC50: 8.8 nM

## COc1ccccc1C1CCCN1c1cnc(C2CC2)c(Nc2ncc(C#N)s2)n1 (stereo not drawn) [Example 24, 2-({3-Cyclopropyl-6-[2-(2-methoxyphenyl)pyrrolidin-1-yl]pyrazin-2-yl}amino)-1,3-thiazole-5-carbonitrile]
JAK2 tyrosine kinase
  IC50: 210 nM
ROS tyrosine kinase
  IC50: 6.6 nM

## N#Cc1cnc(Nc2nc(N3CCCC3c3ccc(F)cc3)cnc2-c2ccoc2)s1 (stereo not drawn) [Example 25, 2-({6-[2-(4-Fluorophenyl)pyrrolidin-1-yl]-3-(furan-3-yl)pyrazin-2-yl}amino)-1,3-thiazole-5-carbonitrile]
JAK2 tyrosine kinase
  IC50: > 1000 nM
ROS tyrosine kinase
  IC50: 26 nM

## Cn1cc(-c2ncc(N3CCCC3c3ccc(F)cc3)nc2Nc2ncc(C#N)s2)cn1 (stereo not drawn) [Example 28, 2-({6-[2-(4-Fluorophenyl)pyrrolidin-1-yl]-3-(1-methyl-1H-pyrazol-4-yl)pyrazin-2-yl}amino)-1,3-thiazole-5-carbonitrile]
JAK2 tyrosine kinase
  IC50: > 1000 nM
ROS tyrosine kinase
  IC50: 51 nM

## COc1cc(C)ccc1C1CCCN1c1cncc(Nc2ncc(C#N)s2)n1 (stereo not drawn) [Example 30, 2-({6-[2-(2-Methoxy-4-methylphenyl)pyrrolidin-1-yl]pyrazin-2-yl}amino)-1,3-thiazole-5-carbonitrile]
JAK2 tyrosine kinase
  IC50: 69 nM
ROS tyrosine kinase
  IC50: 0.5 nM

## Cc1cnc(Nc2nc(N3CCCC3c3ccc(Cl)cc3)cnc2C2CC2)s1 (stereo not drawn) [Example 31, 6-[2-(4-Chlorophenyl)pyrrolidin-1-yl]-3-cyclopropyl-N-(5-methyl-1,3-thiazol-2-yl)pyrazine-2-amine]
JAK2 tyrosine kinase
  IC50: 390 nM
ROS tyrosine kinase
  IC50: 5.3 nM

## COc1cc(C2CCCN2c2cncc(Nc3ncc(C#N)s3)n2)ccc1C (stereo not drawn) [Example 33, 2-({6-[2-(3-Methoxy-4-methylphenyl)pyrrolidin-1-yl]pyrazin-2-yl}amino)-1,3-thiazole-5-carbonitrile]
JAK2 tyrosine kinase
  IC50: 190 nM
ROS tyrosine kinase
  IC50: 2.2 nM

## Cc1ccc([C@@H]2CCCN2c2cnc(C3CC3)c(Nc3ncc(C#N)s3)n2)cc1 [Example 35, 2-({3-Cyclopropyl-6-[(2S)-2-(4-methylphenyl)pyrrolidin-1-yl]pyrazin-2-yl}amino)-1,3-thiazole-5-carbonitrile]
JAK2 tyrosine kinase
  IC50: > 1000 nM
ROS tyrosine kinase
  IC50: 2.9 nM

## N#Cc1cnc(Nc2nc(N3CCC[C@H]3c3ccc(Cl)cc3)cnc2C2CC2)s1 [Example 36, 2-({6-[(2S)-2-(4-Chlorophenyl)pyrrolidin-1-yl]-3-cyclopropylpyrazin-2-yl}amino)-1,3-thiazole-5-carbonitrile]
JAK2 tyrosine kinase
  IC50: 240 nM
ROS tyrosine kinase
  IC50: 1 nM

## COc1ccc(C2CCCN2c2cncc(Nc3ncc(C#N)s3)n2)cc1 (stereo not drawn) [Example 37, 2-({6-[2-(4-Methoxyphenyl)pyrrolidin-1-yl]pyrazin-2-yl}amino)-1,3-thiazole-5-carbonitrile]
JAK2 tyrosine kinase
  IC50: 560 nM
ROS tyrosine kinase
  IC50: 13 nM

## COc1cccc(C2CCCN2c2cncc(Nc3ncc(C#N)s3)n2)c1 (stereo not drawn) [Example 38, 2-({6-[2-(3-Methoxyphenyl)pyrrolidine-1-yl]pyrazin-2-yl}amino)-1,3-thiazole-5-carbonitrile]
JAK2 tyrosine kinase
  IC50: 620 nM
ROS tyrosine kinase
  IC50: 18 nM

## N#Cc1cnc(Nc2nc(N3CCCC3c3ccc(F)cc3)cnc2C2CC2)s1 (stereo not drawn) [Example 40, 2-({3-Cyclopropyl-6-[2-(4-fluorophenyl)pyrrolidin-1-yl]pyrazin-2-yl}amino)-1,3-thiazole-5-carbonitrile]
JAK2 tyrosine kinase
  IC50: 230 nM
ROS tyrosine kinase
  IC50: 2.1 nM

Source: US9580413B2, “Substituted pyrrolidines as ROS tyrosine kinase inhibitors” (NIPPON SHINYAKU CO., LTD., priority 2012, dated 2017)
